According to patent US20250129430A1, “HIGH ATP-AFFINITY PROTEIN AS THERAPEUTIC TARGET FOR INTRACTABLE CANCER MOLECULAR SUBTYPES AND INHIBITOR THEREOF” (VeraVerse Co., Ltd., priority 2021, published 2025):
Where a name gives a salt, the structure may show the parent alone.

How the values were obtained:
Test in all cases: Cell viability drug screen, 12-point dose-response AUC
Type in all cases: cell-based, human
FU97 = test system: FU97; set-up: Average Area Under the Viability Curve (AUC), AUC norm value: scale not given here; conditions: FU97 cells; 72 hours
Method: (§1) Cells cultured for cell-based drug assay were inoculated into a 96-well white optical plate (Corning) at 5×10^3 cells per well. After 24 hours after inoculation, a 2.5 MJT (primary screen) or a half-log 12-serial diluent (secondary screen) of the pharmacological compound contained in DMSO is added to the cells with a robot using a BioMek FXp liquid processor (Beckman) to add to the cells at 50 mM. The final drug concentration in the 5 ns range and the DMSO specification control (0.5%) were calculated. The cells were then further incubated at 37° C. in a 5% CO2 incubator for 72 hours prior to measuring cell viability using the extra-GLO assay kit (Promega). The luminescent properties were measured after 15 min incubation at room temperature using a plate stacker equipped with a plate stacker. The normalized viability for the DMSO-based control was measured to generate a cell line-specific 12-point dose-response curve for each pharmacological compound, and then the area under the curve (AUC) was calculated using a trapezoidal method.

SNU1750 = SNU1750 cells (SEM subtype); 72 hours
Method: (§2) An FDA-approved small-molecule pharmacological compound (#L1300) and an anticancer compound for research (#L2000) were purchased from Selecckchem and a 10 mM solution was prepared in DMSO. A total of 1,345 compounds were tested the cell viability of the seven EMT gastric cancer cell lines.
as §1, with “method. […] The results of the repeated experiments were averaged to generate AUC values for each cell line for each compound.” for “method.”

SNU638 = SNU638 cells; 72 hours
Method: as §2
as §1, with “method. […] The results of the repeated experiments were averaged to generate AUC values for each cell line for each compound.” for “method.”

MKN74 = MKN74 cells; 72 hours
Method: as §2
as §1, with “method. […] The results of the repeated experiments were averaged to generate AUC values for each cell line for each compound.” for “method.”

SNU16 = SNU16 cells; 72 hours
Method: as §2
as §1, with “method. […] The results of the repeated experiments were averaged to generate AUC values for each cell line for each compound.” for “method.”

Hs746T = Hs746T cells (SEM subtype); 72 hours
Method: as §2
as §1, with “method. […] The results of the repeated experiments were averaged to generate AUC values for each cell line for each compound.” for “method.”

NCC24 = NCC24 cells; 72 hours
Method: as §2
as §1, with “method. […] The results of the repeated experiments were averaged to generate AUC values for each cell line for each compound.” for “method.”

SNU1 = SNU1 cells; 72 hours
Method: as §2
as §1, with “method. […] The results of the repeated experiments were averaged to generate AUC values for each cell line for each compound.” for “method.”

KATO3 = KATO3 cells; 72 hours
Method: as §2
as §1, with “method. […] The results of the repeated experiments were averaged to generate AUC values for each cell line for each compound.” for “method.”

NCC59 = NCC59 cells; 72 hours
Method: as §2
as §1, with “method. […] The results of the repeated experiments were averaged to generate AUC values for each cell line for each compound.” for “method.”

AGS = AGS cells (non-SEM subtype); 72 hours
Method: as §2
as §1, with “method. […] The results of the repeated experiments were averaged to generate AUC values for each cell line for each compound.” for “method.”

SNU216 = SNU216 cells (non-SEM subtype); 72 hours
Method: as §2
as §1, with “method. […] The results of the repeated experiments were averaged to generate AUC values for each cell line for each compound.” for “method.”

MKN28 = MKN28 cells; 72 hours
Method: as §2
as §1, with “method. […] The results of the repeated experiments were averaged to generate AUC values for each cell line for each compound.” for “method.”

SNU601 = SNU601 cells; 72 hours
Method: as §2
as §1, with “method. […] The results of the repeated experiments were averaged to generate AUC values for each cell line for each compound.” for “method.”

YCC11 = YCC11 cells (SEM subtype); 72 hours
Method: as §2
as §1, with “method. […] The results of the repeated experiments were averaged to generate AUC values for each cell line for each compound.” for “method.”

YCC2 = YCC2 cells; 72 hours
Method: as §2
as §1, with “method. […] The results of the repeated experiments were averaged to generate AUC values for each cell line for each compound.” for “method.”

SNU620 = SNU620 cells; 72 hours
Method: as §2
as §1, with “method. […] The results of the repeated experiments were averaged to generate AUC values for each cell line for each compound.” for “method.”

SNU668 = SNU668 cells (SEM subtype); 72 hours
Method: as §2
as §1, with “method. […] The results of the repeated experiments were averaged to generate AUC values for each cell line for each compound.” for “method.”

MKN45 = MKN45 cells (non-SEM subtype); 72 hours
Method: as §2
as §1, with “method. […] The results of the repeated experiments were averaged to generate AUC values for each cell line for each compound.” for “method.”

NCC20 = NCC20 cells; 72 hours
Method: as §2
as §1, with “method. […] The results of the repeated experiments were averaged to generate AUC values for each cell line for each compound.” for “method.”

NCI_N87 = NCI_N87 cells; 72 hours
Method: as §2
as §1, with “method. […] The results of the repeated experiments were averaged to generate AUC values for each cell line for each compound.” for “method.”

SK4 = SK4 cells (SEM subtype); 72 hours
Method: as §2
as §1, with “method. […] The results of the repeated experiments were averaged to generate AUC values for each cell line for each compound.” for “method.”

SNU484 = SNU484 cells (SEM subtype); 72 hours
Method: as §2
as §1, with “method. […] The results of the repeated experiments were averaged to generate AUC values for each cell line for each compound.” for “method.”

NCC19 = NCC19 cells; 72 hours
Method: as §2
as §1, with “method. […] The results of the repeated experiments were averaged to generate AUC values for each cell line for each compound.” for “method.”

MKN1 = MKN1 cells; 72 hours
Method: as §2
as §1, with “method. […] The results of the repeated experiments were averaged to generate AUC values for each cell line for each compound.” for “method.”

OCUM1 = OCUM1 cells; 72 hours
Method: as §2
as §1, with “method. […] The results of the repeated experiments were averaged to generate AUC values for each cell line for each compound.” for “method.”

SNU719 = SNU719 cells; 72 hours
Method: as §2
as §1, with “method. […] The results of the repeated experiments were averaged to generate AUC values for each cell line for each compound.” for “method.”

SNU1967 = SNU1967 cells; 72 hours
Method: as §2
as §1, with “method. […] The results of the repeated experiments were averaged to generate AUC values for each cell line for each compound.” for “method.”

YCC3 = YCC3 cells; 72 hours
Method: as §2
as §1, with “method. […] The results of the repeated experiments were averaged to generate AUC values for each cell line for each compound.” for “method.”

| SMILES | Average Area Under the Viability Curve (AUC), AUC norm value (FU97) | Average Area Under the Viability Curve (AUC), AUC norm value (SNU1750) | Average Area Under the Viability Curve (AUC), AUC norm value (SNU638) | Average Area Under the Viability Curve (AUC), AUC norm value (MKN74) | Average Area Under the Viability Curve (AUC), AUC norm value (SNU16) | Average Area Under the Viability Curve (AUC), AUC norm value (Hs746T) | Average Area Under the Viability Curve (AUC), AUC norm value (NCC24) | Average Area Under the Viability Curve (AUC), AUC norm value (SNU1) | Average Area Under the Viability Curve (AUC), AUC norm value (KATO3) | Average Area Under the Viability Curve (AUC), AUC norm value (NCC59) | Average Area Under the Viability Curve (AUC), AUC norm value (AGS) | Average Area Under the Viability Curve (AUC), AUC norm value (SNU216) | Average Area Under the Viability Curve (AUC), AUC norm value (MKN28) | Average Area Under the Viability Curve (AUC), AUC norm value (SNU601) | Average Area Under the Viability Curve (AUC), AUC norm value (YCC11) | Average Area Under the Viability Curve (AUC), AUC norm value (YCC2) | Average Area Under the Viability Curve (AUC), AUC norm value (SNU620) | Average Area Under the Viability Curve (AUC), AUC norm value (SNU668) | Average Area Under the Viability Curve (AUC), AUC norm value (MKN45) | Average Area Under the Viability Curve (AUC), AUC norm value (NCC20) | also measured |
| --- | --- | --- | --- | --- | --- | --- | --- | --- | --- | --- | --- | --- | --- | --- | --- | --- | --- | --- | --- | --- | --- |
| NC(=O)Nc1cc(-c2cccc(F)c2)sc1C(=O)N[C@H]1CCCNC1 [AZD7762] | −0.7616 | −0.9031 | 1.404 | −0.4773 | −1.119 | 1.376 | 1.107 | −0.2026 | 2.891 | 2.107 | −0.4403 | 0.7004 | −0.3131 | −0.957 | −0.9757 | 0.451 | 0.2258 | 1.537 | −0.3384 | −0.4167 | Average Area Under the Viability Curve (AUC), AUC norm value (NCI_N87): 0.8405; Average Area Under the Viability Curve (AUC), AUC norm value (SK4): −0.9696; Average Area Under the Viability Curve (AUC), AUC norm value (SNU484): 0; Average Area Under the Viability Curve (AUC), AUC norm value (NCC19): 2.796; Average Area Under the Viability Curve (AUC), AUC norm value (MKN1): −0.01906; Average Area Under the Viability Curve (AUC), AUC norm value (OCUM1): 0.511; Average Area Under the Viability Curve (AUC), AUC norm value (SNU719): 3.771; Average Area Under the Viability Curve (AUC), AUC norm value (SNU1967): −0.3626; Average Area Under the Viability Curve (AUC), AUC norm value (YCC3): 1.638 |
| CCCCC(CC)CNC(=N)NC(=N)NCCCCCCNC(=N)NC(=N)NCC(CC)CCCC (stereo not shown) [Alexidine HCl] | −0.9535 | −0.6331 | −0.612 | −0.3433 | −1.849 | −0.2597 | −0.4745 | 0.7061 | 0.541 | 1.334 | −0.444 | 0.03777 | 0 | 1.898 | −1.347 | −0.00823 | 0.0423 | −0.1375 | 0.04553 | 0.6963 | Average Area Under the Viability Curve (AUC), AUC norm value (NCI_N87): 2.531; Average Area Under the Viability Curve (AUC), AUC norm value (SK4): −0.9023; Average Area Under the Viability Curve (AUC), AUC norm value (SNU484): −1.212; Average Area Under the Viability Curve (AUC), AUC norm value (NCC19): 1.132; Average Area Under the Viability Curve (AUC), AUC norm value (MKN1): 0.8687; Average Area Under the Viability Curve (AUC), AUC norm value (OCUM1): −0.04134; Average Area Under the Viability Curve (AUC), AUC norm value (SNU719): 1.2; Average Area Under the Viability Curve (AUC), AUC norm value (SNU1967): 0.1828; Average Area Under the Viability Curve (AUC), AUC norm value (YCC3): 0.8273 |
